Measured values: PubChem BioAssay AID1320 (NMMLSC, 2008)
Activity calls are given as the source filed them. How the calls were made is not given here.

These molecules were tested against Bcl-2-related protein A1 (Homo sapiens) (UniProt Q16548) (assay: inhibitors of Bim binding to Bfl-1, dose response, biochemical, multiplexed, bead-based flow cytometry (AID 1320; on percent span (inhibition): test concentration not given here)). Settings: Bim peptide-Bfl-1 binding, fluorescence.
Chain of Bcl-2-related protein A1 (Homo sapiens) (Q16548 whole entry, looked up): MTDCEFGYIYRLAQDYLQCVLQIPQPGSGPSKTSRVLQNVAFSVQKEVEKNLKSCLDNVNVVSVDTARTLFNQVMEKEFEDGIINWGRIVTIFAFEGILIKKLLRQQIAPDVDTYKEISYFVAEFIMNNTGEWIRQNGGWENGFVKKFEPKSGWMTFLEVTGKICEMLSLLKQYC

| EC50 | Structure (SMILES) |
| --- | --- |
| inactive | CC1CC2=C(NC(=S)NC2c2cccc(F)c2)/C(=C/c2cccc(F)c2)C1 (stereo not drawn) |

Same assay, conditions: Bim peptide-Bfl-1 binding, fluorescence

| percent span (inhibition) | Structure (SMILES) |
| --- | --- |
| inactive | COc1ccc(CC(=O)Nc2ccc3nc(C)sc3c2)cc1OC |
| inactive | O=C1C(=O)c2ccc(-c3ccccc3)cc2-c2ccccc21 |
| inactive | CN(CCc1ccccn1)C(=O)CCC1CCCN(C(=O)NC2CCCCC2)C1 (stereo not drawn) |
| inactive | C#CCOCCOCCOCCNc1nc(N2CCN(C(=O)[C@H](CCCCN)n3cc(CCCC)nn3)CC2)nc(N2CCN(C(=O)[C@H](Cc3ccc(O)cc3)n3cc(CCO)nn3)CC2)n1 |
| inactive | O=C(NCCN1CCOCC1)c1cc(Cl)ccc1[N+](=O)[O-] |
| inactive | CNC(=O)CC1C(=O)N(Cc2ccccc2)C(=S)N1NC(=O)c1cccc(F)c1 (stereo not drawn) |
| inactive | CN(CCCOc1ccccc1Br)Cc1ccccc1 |
| inactive | Cc1cc(-c2nnc3n2N=C(c2ccc(-c4ccccc4)cc2)CS3)n[nH]1 |
| inactive | O=C(c1ccc(CNS(=O)(=O)c2ccc(Br)cc2)cc1)N1CCCC1 |
| inactive | O=C(CCl)Nc1cccc2ncccc12 |
| inactive | CN(/N=C/c1ccncc1)C1=NS(=O)(=O)c2ccccc21 |
| inactive | NCC(c1ccccc1)c1c[nH]c2ccccc12 (stereo not drawn) |
| inactive | Cc1cc(NC(=O)CCSc2ccccc2)ccc1Br |
| inactive | COc1ccc(C2C(C#N)=C(C)NC3=C2S(=O)(=O)c2ccccc23)cc1 (stereo not drawn) |
| inactive | COc1ccccc1Cn1nnc2c(=O)[nH]c(C3CCN(C(=O)c4ccc(C)cc4)CC3)nc21 |
| inactive | COc1ccc(Cc2c(O)nc(SC)n(C(C)=O)c2=O)cc1 |
| inactive | CCCCc1ccc(NC(=S)NCc2ccc(OC)cc2)cc1 |
| inactive | Cc1ccc(CC(=O)OCCNC(=O)c2cccnc2)cc1 |
| inactive | Cc1cccc(C(=O)N2CCC(c3nc(-c4ccc(S(=O)(=O)N5CCOCC5)cc4)no3)CC2)c1 |
| inactive | O=C(CSc1nc2ccsc2c(=O)n1Cc1ccc(C(=O)O)cc1)NCC1CCCO1 (stereo not drawn) |
| inactive | Cc1occc1C(=O)NNC(=S)NCc1ccccc1 |
| inactive | COc1cc2c(cc1OC)C(c1ccccc1F)OC(=O)C2 (stereo not drawn) |
| inactive | Cc1cc(-c2csc(N)n2)c(C)n1CCC(C)C |
| inactive | O=C(C1CCC(Cn2c(=S)[nH]c3ccccc3c2=O)CC1)N1CCN(c2ccccn2)CC1 (stereo not drawn) |

| percent span (inhibition) | Structure (SMILES) |
| --- | --- |
| inactive | O=C1C(Cl)=C(Nc2ccccc2O)C(=O)N1c1ccccc1 |
| inactive | O=C(Nc1nnc(SCc2ccccn2)s1)C1CC(=O)N(c2ccccc2)C1 (stereo not drawn) |
| inactive | Cn1c(=O)c2cc(S(=O)(=O)Nc3cc(C(=O)O)cc(C(=O)O)c3)ccc2n(C)c1=O |
| inactive | CCN1CCN(c2cc(C)c3cc(NC(=S)N4CCN(c5ccccc5)CC4)ccc3n2)CC1 |
| inactive | Cc1csc(SCCn2c(N3CCN(c4ccccc4)CC3)nc3c2c(=O)[nH]c(=O)n3C)n1 |
| inactive | CN(/N=C/C=C/c1ccccc1)C1=NS(=O)(=O)c2ccccc21 |
| inactive | Fc1cccc(Nc2nc(-c3ccncc3)nc3ccccc23)c1 |
| inactive | O=c1c2c(n3nnnc3n1Cc1ccccc1)-c1ccccc1CC21CCCC1 |
| inactive | COc1ccc(CN(C)CC(=O)NC(C)c2ccccc2)c(OC)c1 (stereo not drawn) |
| inactive | CCCCC(C(=O)OCC)C(N)Cc1ccc(F)cc1 (stereo not drawn) |
| inactive | COC(=O)c1sc2nc[nH]c(=O)c2c1C |
| inactive | COc1ccccc1-n1c(SCC(=O)N2CCc3ccccc32)nc2c(c1=O)SCC2 |
| inactive | O=C(Nc1nnc(C2CC2)s1)C1Cc2ccccc2CN1S(=O)(=O)c1ccccc1F (stereo not drawn) |
| inactive | CCOC(=O)c1c2c3c(cccc3[nH]c1=O)C(=O)c1ccccc1-2 |
| inactive | O=C(NC1=C(Nc2ccc(F)cc2)C(=O)c2ccccc2C1=O)c1ccc(Cl)cc1 |
| inactive | CCOC(=O)CCCNC(=O)c1cncc(O)c1 |
| inactive | CCOC(=O)c1nn(-c2ccccc2)c(C#N)c1N |
| inactive | Cc1[nH]n(C(N)=S)c(=O)c1N=Nc1ccc(S(=O)(=O)N2CCCCCC2)cc1 |
| inactive | Cc1ccc(C(=O)CCC(=O)Nc2ccc(Cl)c(S(=O)(=O)Nc3cccc(Cl)c3)c2)cc1 |
| inactive | CS(=O)(=O)NN1C(=O)c2ccccc2NC1c1cccs1 (stereo not drawn) |
| inactive | Nc1ccc(N2CCN(CCCCN3C(=O)C4CCCN4C3=O)CC2)cc1 (stereo not drawn) |
| inactive | CCN1/C(=C/c2ccc3cc(C)cc(C)c3[n+]2CC)Sc2cc(C)ccc21 |
| inactive | COC(=O)c1cc(OC)c(OC)cc1NC(=O)Nc1cccc(C(C)=O)c1 |
| inactive | COc1c(C)cc(Br)cc1C(=O)Nc1ccc(S(N)(=O)=O)cc1 |

| percent span (inhibition) | Structure (SMILES) |
| --- | --- |
| inactive | c1ccc(-c2nnc(OCCN3CCOCC3)c3ccccc23)cc1 |
| inactive | COc1ccccc1C1=Nc2cccc3cccc(c23)N1 |
| inactive | CS(=O)(=O)NN1C(=O)c2ccccc2NC1c1ccccc1 (stereo not drawn) |
| inactive | CCN1CCN(c2cc(C)c3cc(NC(=S)N4CCN(c5ccc(F)cc5)CC4)ccc3n2)CC1 |
| inactive | COc1ccc(-n2c(SCC(=O)Nc3ccc(C(=O)O)cc3)nnc2-c2cccs2)cc1 |
| inactive | OC(CNC1CCCCC1)COCCOc1ccc(Br)cc1 (stereo not drawn) |
| inactive | COc1ccc(NC(=O)/C(C#N)=C/c2c(C)nn(-c3ccc(F)cc3)c2Cl)cc1Cl |
| inactive | Cc1c(Cc2ccccc2)sc(N)c1C(N)=O |
| inactive | C#CCOCCOCCOCCNc1nc(N2CCN(C(=O)[C@H]([C@@H](C)CC)n3cc([C@@H](N)CC(C)C)nn3)CC2)nc(N2CCN(C(=O)[C@H](Cc3cc4ccccc4[nH]3)n3cc([C@@H](N)Cc4ccc(O)cc4)nn3)CC2)n1 |
| inactive | CN=C(NC1CCCCC1)c1ccc(Cl)cc1 |
| inactive | C=CCN1C(=O)/C(=C/c2ccsc2)SC1=S |
| inactive | OC(COc1ccc2cc(Br)ccc2c1)CN1CCOCC1 (stereo not drawn) |
| inactive | CCOc1ncccc1C(=O)OC(C)C(=O)Nc1ccc(CC)cc1 (stereo not drawn) |
| inactive | COc1ccc(N2C(=O)C(Cl)=C(Nc3ccccc3O)C2=O)cc1 |
| inactive | CCCCN(C(=O)CCC(=O)Nc1cc(C)on1)C(C(=O)NC(C)(C)C)c1cccc(OC)c1OC (stereo not drawn) |
| inactive | CN(Cc1ccccc1)c1nc2c(c(=O)[nH]c(=O)n2C)n1C |
| inactive | O=C(CCCN1C(=O)c2cccc3cccc(c23)C1=O)N1CCN(c2ccccn2)CC1 |
| inactive | CCOCCCNc1nc(=S)[nH]c2cc(OC)c(OC)cc12 |
| inactive | Cc1nonc1NC(=O)CSc1nnc(-c2ccoc2C)n1C |
| inactive | Cc1ccc(C)c(NC(=O)C(=O)NCc2ccccn2)c1 |
| inactive | Cc1nc2ccccc2n1CSc1ccccc1 |
| inactive | COc1ccc2oc(-c3ccccc3)c(C(=O)N3CCOCC3)c2c1 |
| inactive | CCOc1ccccc1NC(=O)CSc1ccc2nnc(-c3cccnc3)n2n1 |
| inactive | COc1ccc(S(=O)(=O)NCCSc2ccccc2)cc1OC |

| percent span (inhibition) | Structure (SMILES) |
| --- | --- |
| inactive | O=C(/C=C/c1ccc(-c2ccccc2)o1)c1ccccc1 |
| inactive | Cc1nc2ncccn2c1-c1csc(Nc2ccc(O)cc2)n1 |
| inactive | CCCCOc1ccc(Cc2c(Cl)nc(SC)nc2N2CCOCC2)cc1 |
| inactive | CC(C)n1nnnc1SCC(=O)N1CCN(C(=O)c2ccco2)CC1 |
| inactive | Cc1cc(NC(=O)CSc2nnc(-c3cccnc3)n2Cc2ccccc2)no1 |
| inactive | CCOc1ccc(C2=Nn3c(nnc3-c3ccccn3)SC2)cc1 |
| inactive | O=C(Nc1ccccn1)c1cc2ccccc2o1 |
| inactive | Cc1ccc(NN2C(=O)C=CC2=O)cc1 |
| inactive | CCNC(=O)N1c2ccc(OCC)cc2C(C)=CC1(C)C |
| inactive | O=C(Nc1n[nH]c(C(F)(F)F)n1)C1CC1 |
| inactive | Fc1ccc(C2=Nn3c(Cc4ccccc4F)nnc3SC2)cc1 |
| inactive | Cc1[nH]c2ccccc2c1C(=O)COC(=O)c1c(-c2c(F)cccc2Cl)noc1C |
| inactive | COc1ccccc1Nc1nc(-c2c(C)nc3ncccn23)cs1 |
| inactive | COc1cccc(-n2nnnc2SCC(=O)Nc2cccc(NC(C)=O)c2)c1 |
| inactive | O=C(CSc1ccc2nnc(-c3ccncc3)n2n1)Nc1nccs1 |
| inactive | CC(C)c1ccc(/C=N/NC(=O)c2ccccc2Cl)cc1 |
| inactive | O=C(c1cccc(Br)c1)N1CCN(c2cnn(-c3ccccc3)c(=O)c2Cl)CC1 |
| inactive | O=C1c2ccccc2-c2onc3ccc(NCc4ccco4)c1c23 |
| inactive | NNC(=O)COc1ccccc1F |
| inactive | Cc1ccccc1-n1c(SCc2cccc(F)c2)nc2[nH]ncc2c1=O |
| inactive | CC(NCc1ccc(-c2ccccc2)cc1)C(O)c1ccccc1 (stereo not drawn) |
| inactive | Cc1ccc(OCC(=O)NCc2ccccn2)c(Br)c1 |
| inactive | COc1cccc(C(=O)/C=C/Nc2ccc(S(=O)(=O)Nc3onc(C)c3C)cc2)c1 |
| inactive | COc1ccc(C(=O)/C=C/c2cc(OC)c(O)c(OC)c2)c(F)c1 |

| Structure (SMILES) | percent span (inhibition) |
| --- | --- |
| CN(C)C(Cc1ccccc1)C(=O)c1cccs1 (stereo not drawn) | inactive |
